Results as given in patent US20220202770A1, “COMPOSITION FOR TREATING HEPATITIS B, AND METHOD FOR EVALUATING REPLICATION ACTIVITY OF HEPATITIS B VIRUS” (priority 2016, published 2022).

Columns and labels:
[1] = system: HBV DNA replication (reverse transcription of reporter pgRNA by wild type HBV-Pol); experiment: Evaluation method for HBV replication activity: reporter-minus strand DNA quantified by real time PCR in transfected HeLa cells; assay type: cell-based, hepatitis B virus (genotype C); HeLa cells; conditions: 24 hours; for suppression of reverse transcription by wild-type HBV-Pol: Example 9, FIG. 12B (a, b), 0.020-5.000 μM
Method: To HeLa cells, the evaluation vector for HBV replication activity, HBV-P expression vector, HBc expression vector and HBx expression vector were introduced in various combinations (Introduction step). Combination patterns are as described in FIG. 4A. Transfection of the HeLa cells was carried out by electroporation. DNA (10 μg) was introduced into about 1×10^6 HeLa cells in the conditions of 125 V/2.5 ms plus length by an electroporator, Nepa 21 (Nepa Gene Co., Ltd.). The ratio of HBc expression vector:HBV-P expression vector:HBx expression vector was set to be 9:3:1. If there was an expression vector not to be introduced depending on the combination, the same ratio of an empty vector (pCI) as that of the expression vector not to be introduced was introduced. The ratio of the evaluation vector for HBV replication activity and the total of other expression vectors was set to be 1: 1 (5 μg: 5 μg). If there was an expression vector not to be introduced, pCI was introduced at the ratio corresponding to that of the expression vector.
After transfection, the HeLa cells were cultured in DMEM supplemented with 2 mL of 10% FBS in the presence of 5% CO2 at 37° C. for 48 hours (Culturing step).
After culture, DNA was extracted from the HeLa cells by means of DNeasy Mini (Qiagen). As the primer, a primer pair of a forward primer consisting of the nucleotide sequence represented by SEQ ID NO: 38 and a reverse primer consisting of the nucleotide sequence represented by SEQ ID NO: 39, was used. The forward primer has the two nucleotides at the 3′ terminal, which match the two nucleotides at the 5′ terminal of the exon present on the downstream side; however, fail to match two nucleotides at the 5′ terminal of the intron. Accordingly, the forward primer functions as a primer only in the case where reporter-minus strand DNA having a reporter sequence from which the intron was removed is present, and amplification can be made by using the reporter-minus strand DNA as a template to provide a DNA fragment of 131 nucleotides.
In accordance with the evaluation method for HBV replication activity described in Example 1, an evaluation vector for HBV replication activity, HBV-P expression vector, HBc expression vector and HBx expression vector were introduced in HeLa cells. […]
To HeLa cells, an evaluation vector for HBV replication activity, and expression vectors of HBV-P, HVc and HBx were introduced in the ratio described in the evaluation method for HBV replication activity described in Example 2. […] The absorbance of the culture solution was measured at 450 nm/650 nm to evaluate the survival rates of the cells. […]

[2] = system: genomic DNA (G3PDH exon 8) of HeLa cells; experiment: Amount of genomic DNA (G3PDH exon 8) in HeLa cells by real time PCR; assay type: cell-based, human (HeLa cells); conditions: Example 3, FIG. 6B, serially diluted
Method: (§1) To HeLa cells, an evaluation vector for HBV replication activity, and expression vectors of HBV-P, HVc and HBx were introduced in the ratio described in the evaluation method for HBV replication activity described in Example 2. Thereafter, the HeLa cells were cultured in a 96-well plate containing a culture solution supplemented with a 0.25% n-butanol extract of a filamentous fungus culture, under 5% CO2 atmosphere at 37° C. Twenty-four hours later, WST-8 (Nacalai) was added to the culture solution, which was further subjected to culture for 2 hours. The absorbance of the culture solution was measured at 450 nm/650 nm to evaluate the survival rates of the cells.
(§2) After the culture solution was removed, DNA in the cell cytoplasm was recovered by a treatment with 50 μl of Buffer A (10 mM HEPES, 1.5 mM MgCl2, 10 mM KCl, 0.5 mM DTT, 0.05% NP40, pH7.9) and subjected to real time PCR performed in accordance with the method of Example 1. As the result of primary screening of 800 extracts (200 strains, 4 culture solutions), 162 extracts inhibiting 25% or more of HBV DNA replication (reverse transcription) and having a cytotoxic activity of 80% or less were selected as a primary hit.
(§3) Subsequently, 162 extracts primarily hit were serially diluted and added to an evaluation system. […]

[3] = system: mitochondrial DNA (ND5) of HeLa cells; experiment: Amount of mitochondrial DNA (ND5) in HeLa cells by real time PCR; assay type: cell-based, human (HeLa cells); conditions: Example 3, FIG. 6C, serially diluted
Method: as §1, §2, §3

[4] = system: Lamivudine-resistance mutant HBV-Pol (HBV-Pol-LAMr, M204I); experiment: Evaluation method for HBV replication activity with Lamivudine-resistance mutant HBV-Pol; assay type: cell-based, hepatitis B virus; HeLa cells; conditions: Example 9, FIG. 12B (c, d); HeLa cells, 0.020-5.000 μM, 24 hours
Excerpt: (§4) As described in the section of “background art”, long-term administration of conventional anti-HBV drugs made of a nucleotide/nucleoside analog such as Entecavir and Lamivudine causes the emergence of drug-resistant HBV. As a cause of the emergence of such a drug-resistant HBV, a mutation within the region of reverse transcription enzyme (RT) of HBV-Pol has been reported.
(§5) Then, mutant HBV-Pol expression vectors having M204I mutation, and L180M/T184G/S202I/M204I mutations respectively introduced therein were prepared in accordance with a conventional method and designated as HBV-P-LAMr, and HBV-P-ETVr, respectively. As the MAPKK inhibitor, Hypothemycin was used. As a negative control against a drug-resistant HBV, an existing anti-HBV drug, Entecavir, was used.
(§6) HBV replication evaluation was carried out in the same manner as in the evaluation method for HBV replication activity described in Example 1. The evaluation vector for HBV replication activity, and expression vectors of a wild type HBV-P or mutant HBV-P (HBV-P-LAMr or HBV-P-ETVr), HBc and HBx were introduced in the same ratio as in Example 2; at the same time, Hypothemycin or Entecavir was introduced in amounts of 0.000 μM, 0.020 μM, 0.039 μM, 0.078 μM, 0.156 μM, 0.313 μM, 0.625 μM, 1.250 μM, 2.500 μM or 5.000 μM. Culture was carried out under a 5% CO2 atmosphere at 37° C. […]

[5] = system: Entecavir-resistance mutant HBV-Pol (HBV-Pol-ETVr, L180M/T184G/S202I/M204I); experiment: Evaluation method for HBV replication activity with Entecavir-resistance mutant HBV-Pol; assay type: cell-based, hepatitis B virus; HeLa cells; conditions: Example 9, FIG. 12B (e, f); HeLa cells, 0.020-5.000 μM, 24 hours
Excerpt: as §4, §5, §6

[6] = target: HBV/C-Pol (hepatitis B virus polymerase, Genotype C), wild type (hepatitis B virus, Genotype C) (UniProt Q9YZR5); experiment: cell-based or functional assay

Row | Compound | replication of HBV DNA ([1]; Example 3, FIG. 6A, serially diluted) | suppression of reverse transcription by wild-type HBV-Pol [1] | amount of genomic DNA (G3PDH exon 8) [2] | amount of mitochondrial DNA (ND5) [3] | suppression of reverse transcription activity of Lamivudine-resistance mutant HBV-Pol [4] | suppression of reverse transcription activity of Entecavir-resistance mutant HBV-Pol [5] | HBV replication (reporter-minus strand DNA by real time PCR) in HeLa cells under forced expression of MEK1 [6] | amount of the reporter-minus strand DNA (replication of HBV DNA) ([1]; Example 2, FIG. 5, 0.04-5.00 μM/well)
1 | Hypothemycin | inhibited replication of HBV DNA in a concentration-dependent manner | all in a concentration-dependent manner | not affected | not affected | all in a concentration-dependent manner | all in a concentration-dependent manner |  | 
2 | constitutively active human MEK1 (S218E/S222E) (from UniProt Q02750 1-393) (enzyme) |  |  |  |  |  |  | 10 fold | 
3 | C=C1[C@H](CO)[C@@H](O)C[C@@H]1n1cnc2c(=O)[nH]c(N)nc21 [Entecavir] |  | suppressed reverse transcription by a wild-type HBV-Pol in a concentration-dependent manner |  |  | weak | not substantially suppressed |  | decreased in an Entecavir-concentration depending manner
